pIC50: −log10 of the molar value.
How the values were obtained:
RNase III = target: T1, RNase III (Escherichia coli, UniProt P0A7Y0); assay: in vitro ribonuclease activity of commercial enzyme (off-target counter-assay, data not shown); assay type: biochemical
T1 construct: gene rnc

[1] = target: T2, RnpA (protein component of ribonuclease P) (Staphylococcus aureus, UniProt P0A0H5); assay: RiboGreen fluorescence RNA degradation screen; agarose gel titration of spa mRNA degradation by purified RnpA; assay type: biochemical
T2 construct: recombinant full-length predicted open reading frame, N-terminal hexahistidine tag
Source text: RiboGreen fluorescence RNA degradation screen; agarose gel titration of spa mRNA degradation by purified RnpA on RnpA (protein component of ribonuclease P) | five of these molecules were bona-fide inhibitors of RnpA-mediated RNA degradation (Figure 3B). One of these compounds, RNPA1000

T2 sequence (P0A0H5 whole entry): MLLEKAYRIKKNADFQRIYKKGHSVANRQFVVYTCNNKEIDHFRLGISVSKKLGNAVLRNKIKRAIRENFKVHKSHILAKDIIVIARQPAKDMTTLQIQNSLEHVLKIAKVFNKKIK
T1 sequence (P0A7Y0 whole entry): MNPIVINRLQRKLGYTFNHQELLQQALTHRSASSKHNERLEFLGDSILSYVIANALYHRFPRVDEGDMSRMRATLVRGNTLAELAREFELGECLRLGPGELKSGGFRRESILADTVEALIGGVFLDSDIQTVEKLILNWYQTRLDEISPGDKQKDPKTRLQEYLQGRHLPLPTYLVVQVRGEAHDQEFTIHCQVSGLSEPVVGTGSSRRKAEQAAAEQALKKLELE

**Q.** `Cc1cc(/C=C(/C#N)C(=O)Nc2cccc(Br)c2)c(C)n1-c1ccc(C(=O)O)cc1` [RNPA1000] was tested. Which pIC50 (RNase III) did it give?
**A.** Its pIC50 is 3.12 to 3.30.

**Q.** What about the pIC50 [1] of the same molecule?
**A.** Its pIC50 is 3.90 to 4.00.

— paper PMC3037362, “Small Molecule Inhibitors of Staphylococcus aureus RnpA Alter Cellular mRNA Turnover, Exhibit Antimicrobial Activity, and Attenuate Pathogenesis” (PLoS Pathogens, 2011)
